From article PMC6115449, “Rapid and simple detection of Tamiflu-resistant influenza virus: Development of oseltamivir derivative-based lateral flow biosensor for point-of-care (POC) diagnostics” (Scientific Reports, 2018)

Experiments:
[1] = target: WT NA (neuraminidase of pandemic H1N1 virus A/California/07/2009) (Influenza A virus (A/California/07/2009(H1N1)), UniProt C3W6G3); experiment: fluorescence NA activity assay (ex […] nm, em […] nm); format: biochemical; details: 37 °C, 60 min; whole virus
[2] = target: WT NA (neuraminidase of pandemic H1N1 virus A/California/07/2009) (Influenza A virus (A/California/07/2009(H1N1)), UniProt C3W6G3); experiment: fluorescence NA inhibition assay (NA-Fluor, MUNANA); format: biochemical; details: MUNANA substrate; 30 min preincubation, 60 min reaction, 37 °C; whole virus 10^6 PFU/mL; ethyl ester prodrug tested as such

SMILES	fluorescence NA activity assay (ex 360 nm, em 450 nm) [1]	relative NA activity [2]
CC(=O)N[C@H]1[C@H]([C@H](O)[C@H](O)CO)O[C@@](Oc2ccc3c(C)cc(=O)oc3c2)(C(=O)O)C[C@@H]1O [2-(4-methylumbelliferyl)-a-D-N-acetylneuraminic acid]	(MUNANA) was used as the fluorescent substrate to determine the NA enzymatic parameters	
CCOC(=O)C1=C[C@@H](OC(CC)CC)[C@H](NC(C)=O)[C@@H](N)C1 [compound 3, oseltamivir phosphate]		increase in oseltamivir phosphate concentration was accompanied by its binding to WT NA and inhibition
